Experimental findings from ChEMBL document CHEMBL1201862, “PubChem BioAssay data set” (2004) are described below.

Each structure is given as a SMILES string.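 All cell lines were grown in 96-well plates and treated with compound for 48 hours. At the GI50, growth is halved.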 The source made the active and inactive calls. No stated cut-off is given here; in the data, active = GI50 up to about 1.1 µM and inactive = higher. A value given as a limit tells only on which side of the number the result lay.

Some test systems named below: DU-145; A549; LOX IMVI; EKVX; HOP-92; A498; NCI-H522; MDA-MB-435; SNB-75; RPMI-8226; BT-549; CCRF-CEM; HCC 2998; SK-MEL-28; SN12C; MDA-N; SF-295; RXF 393; SK-OV-3; M14.
Holding throughout (experiment): NCI anticancer screen, dose series, 48 h

As to `CC(=O)O[C@@H](c1nccn1Cc1ccccc1)[C@H]1OC(C)(C)O[C@@H]1[C@H]1COC(C)(C)O1`, the GI50 in the experiment on DU-145, in the experiment on A549, in the experiment with LOX IMVI, in the experiment on EKVX, with HOP-92 and in the experiment on A498 was > 100 µM (inactive) each time. The GI50 in the experiment on NCI-H522, in the experiment with MDA-MB-435, in the experiment on SNB-75, in the experiment on RPMI-8226, in the experiment on BT-549 and in the experiment on CCRF-CEM was > 100 µM (inactive) in each case. For the same compound, the GI50 in the experiment on HCC 2998, in the experiment with SK-MEL-28, in the experiment on SN12C, in the experiment on MDA-N, with SF-295 and in the experiment with RXF 393 was > 100 µM (inactive) each time.
Turning to `C=CC(C)(C)c1cc([C@@H]2COc3cc(O)ccc3C2=O)c(O)c(OC)c1OC`, the GI50 with DU-145 was 14.8 µM (inactive); with A549, 15.8 µM (inactive); in the experiment with LOX IMVI, 16.6 µM (inactive); in the experiment on EKVX, 12.1 µM (inactive); in the experiment with HOP-92, 6.1 µM (inactive); in the experiment with A498 it was 16.9 µM (inactive). The GI50 with NCI-H522 was 4.25 µM (inactive); in the experiment on MDA-MB-435 it was 6.44 µM (inactive); in the experiment with SNB-75 it was 4.63 µM (inactive); in the experiment with BT-549, 10.2 µM (inactive); in the experiment on CCRF-CEM, 16.6 µM (inactive); with SK-OV-3, 14.6 µM (inactive). The GI50 in the experiment on HCC 2998 is 17.1 µM (inactive); in the experiment with SK-MEL-28 it was 19.5 µM (inactive); in the experiment on SN12C, 16.3 µM (inactive); with MDA-N it was 7.6 µM (inactive); in the experiment on SF-295, 12.2 µM (inactive); in the experiment on RXF 393 it was 0.0173 µM (active). The GI50 in the experiment with M14 was 15.5 µM (inactive).
Take `O=C(CSc1nc2ccc(I)cc2c(=O)n1Cc1ccccc1)NN1C(=O)c2ccccc2C1=O`: the GI50 in the experiment on DU-145 was 25.4 µM (inactive); in the experiment with A549, 18 µM (inactive); with LOX IMVI, 15 µM (inactive); in the experiment on EKVX it was 12.9 µM (inactive); in the experiment with HOP-92, 14.4 µM (inactive); with A498, 14.8 µM (inactive). The GI50 in the experiment on NCI-H522 is 14.9 µM (inactive); in the experiment on MDA-MB-435, 34.4 µM (inactive); with SNB-75, 4.3 µM (inactive); with RPMI-8226, 33.3 µM (inactive); in the experiment with BT-549, 15.4 µM (inactive); in the experiment with SK-OV-3, 11.6 µM (inactive). The GI50 in the experiment on HCC 2998 is 28.8 µM (inactive); in the experiment on SK-MEL-28, 17.9 µM (inactive); with SN12C it was 18.8 µM (inactive); with MDA-N, 37.3 µM (inactive); in the experiment on SF-295 it was 10.6 µM (inactive); in the experiment on RXF 393, 8.3 µM (inactive). The GI50 in the experiment with M14 is 28.5 µM (inactive).
Turning to `O=C1Nc2ccccc2/C1=N/NC(=S)NCc1ccccn1`, the GI50 is 0.698 µM (active) with DU-145; 0.466 µM (active) with A549; 0.371 µM (active) in the experiment on LOX IMVI; 0.294 µM (active) with EKVX; 1.11 µM (active) in the experiment with HOP-92; 2.25 µM (inactive) with A498. The GI50 in the experiment with NCI-H522 is 0.17 µM (active); in the experiment on MDA-MB-435, 0.931 µM (active); in the experiment with SNB-75, 0.454 µM (active); with RPMI-8226 it was < 0.01 µM (active); in the experiment on BT-549 it was 1.09 µM (active); with CCRF-CEM, < 0.01 µM (active). The GI50 was 1.12 µM (inactive) in the experiment with SK-OV-3; 0.975 µM (active) with HCC 2998; 2.36 µM (inactive) in the experiment on SK-MEL-28; 1.27 µM (inactive) in the experiment on SN12C; 0.975 µM (active) with MDA-N; 0.507 µM (active) in the experiment on SF-295. Further, the GI50 with M14 is 0.312 µM (active).
Consider `O=C(O)c1ccccc1/C=C1/Cc2ccc3c(c2C1=O)CCC3`, for which the GI50 was 68.9 µM (inactive) with DU-145; 44.7 µM (inactive) in the experiment on A549; 19.1 µM (inactive) in the experiment with LOX IMVI; 48.1 µM (inactive) with EKVX; 24.9 µM (inactive) in the experiment with HOP-92; 38.3 µM (inactive) in the experiment on A498. In addition, the GI50 is 42.4 µM (inactive) in the experiment on NCI-H522; 26.3 µM (inactive) with MDA-MB-435; 39.4 µM (inactive) in the experiment on SNB-75; 22.4 µM (inactive) with RPMI-8226; 22.9 µM (inactive) in the experiment with BT-549; 38.9 µM (inactive) in the experiment on CCRF-CEM. Besides, the GI50 was 30.5 µM (inactive) in the experiment on HCC 2998; 42.8 µM (inactive) with SK-MEL-28; 51.8 µM (inactive) in the experiment with SN12C; 29.6 µM (inactive) with MDA-N; 42.4 µM (inactive) in the experiment on SF-295; 38.2 µM (inactive) with RXF 393. Further, the GI50 in the experiment with M14 was 35.5 µM (inactive).
Regarding `O=C1CC(CC(O)C(O)C(O)CO)CC(=O)N1` (centres undefined), the GI50 with DU-145, in the experiment on A549, in the experiment with LOX IMVI, in the experiment on EKVX, in the experiment with HOP-92 and in the experiment with A498 was > 100 µM (inactive) each time. The GI50 with NCI-H522, in the experiment on MDA-MB-435, in the experiment on SNB-75, in the experiment on RPMI-8226, in the experiment with BT-549 and in the experiment with CCRF-CEM was > 100 µM (inactive) in each case. For the same compound, the GI50 in the experiment on HCC 2998, with SK-MEL-28, in the experiment on SN12C, with MDA-N, in the experiment on SF-295 and in the experiment on RXF 393 was > 100 µM (inactive) throughout. Further, the GI50 in the experiment on M14 is > 100 µM (inactive).
Turning to `CCOC1=C(c2ccccc2)N2CCCCC2O1` (centres undefined), the GI50 with DU-145 was 4.19 µM (inactive); in the experiment with A549, 5.57 µM (inactive); with LOX IMVI, 3.77 µM (inactive); in the experiment on EKVX, 5.19 µM (inactive); in the experiment on HOP-92, 2.21 µM (inactive); in the experiment on A498, 8.73 µM (inactive). Further, the GI50 was 3.38 µM (inactive) with NCI-H522; 3.25 µM (inactive) in the experiment on MDA-MB-435; 2.83 µM (inactive) with SNB-75; 1.5 µM (inactive) with RPMI-8226; 5.33 µM (inactive) with BT-549; 2.94 µM (inactive) with CCRF-CEM. Moreover, the GI50 was 3.12 µM (inactive) in the experiment on HCC 2998; 12.3 µM (inactive) with SK-MEL-28; 8.85 µM (inactive) in the experiment on SN12C; 4.03 µM (inactive) with MDA-N; 3.26 µM (inactive) in the experiment on SF-295; 7.89 µM (inactive) in the experiment with RXF 393. Moreover, in the experiment on M14, the GI50 is 3.46 µM (inactive).
As for `COc1cc(Nc2nnc3n2S(=O)(=O)c2cc(C)c(Cl)cc2S3)cc(OC)c1`, the GI50 with DU-145 is 10.7 µM (inactive); in the experiment with A549 it was 6.62 µM (inactive); in the experiment on EKVX it was 15.4 µM (inactive); with HOP-92 it was 5.26 µM (inactive); in the experiment with A498 it was 19.1 µM (inactive); in the experiment with NCI-H522, 2.61 µM (inactive). Also, the GI50 is 4.28 µM (inactive) in the experiment on MDA-MB-435; 2.87 µM (inactive) in the experiment with RPMI-8226; 5.77 µM (inactive) with BT-549; 4.29 µM (inactive) with CCRF-CEM; 14.2 µM (inactive) in the experiment with SK-OV-3; 6.18 µM (inactive) with HCC 2998. Moreover, the GI50 with SK-MEL-28 was 26 µM (inactive); in the experiment with SN12C it was 24.8 µM (inactive); in the experiment on MDA-N, 4.68 µM (inactive); in the experiment with SF-295 it was 21.5 µM (inactive); in the experiment with RXF 393, 10.5 µM (inactive); with M14 it was 59.3 µM (inactive).
With `COC(=O)C1C/C(=C/N(C)C)C(=S)N1` (centres undefined), the GI50 with DU-145 is > 100 µM (inactive); in the experiment on A549 it was > 100 µM (inactive); with EKVX it was > 100 µM (inactive); in the experiment with HOP-92, 54.1 µM (inactive); with A498 it was > 100 µM (inactive); with NCI-H522, > 100 µM (inactive). Besides, the GI50 with MDA-MB-435, in the experiment with SNB-75, in the experiment with RPMI-8226, in the experiment on BT-549, in the experiment with CCRF-CEM and with SK-OV-3 was > 100 µM (inactive) in each case. Also, the GI50 in the experiment on HCC 2998, with SK-MEL-28, with MDA-N, with SF-295, in the experiment on RXF 393 and in the experiment on M14 was > 100 µM (inactive) each time.
As to `COCCOC(C)C(=O)C(O)S(=O)(=O)O` (centres undefined), the GI50 in the experiment on DU-145, in the experiment on A549, with EKVX, in the experiment with HOP-92, in the experiment on A498 and in the experiment on NCI-H522 was > 100 µM (inactive) throughout. Also, the GI50 in the experiment with MDA-MB-435, in the experiment with SNB-75, with RPMI-8226, with BT-549, with CCRF-CEM and with SK-OV-3 was > 100 µM (inactive) each time. Also, the GI50 in the experiment on HCC 2998, in the experiment with SK-MEL-28, in the experiment on SN12C, with MDA-N, in the experiment with SF-295 and in the experiment on RXF 393 was > 100 µM (inactive) each time. The GI50 in the experiment on M14 is > 100 µM (inactive).
Regarding `CC(C)C[C@H](NC(=O)[C@@H](N)Cc1cccc2ccccc12)B(O)O`, the GI50 in the experiment on DU-145 was 0.44 µM (active); with A549 it was 0.0766 µM (active); with LOX IMVI it was < 0.0179 µM (active); in the experiment on HOP-92, 0.398 µM (active); with A498, < 0.0189 µM (active); in the experiment with NCI-H522, 0.187 µM (active). In addition, the GI50 in the experiment on MDA-MB-435 was < 0.0134 µM (active); in the experiment with SNB-75 it was 0.0259 µM (active); in the experiment with RPMI-8226 it was < 0.0164 µM (active); with BT-549, 0.0203 µM (active); in the experiment with SK-OV-3, 0.0703 µM (active); in the experiment with HCC 2998 it was 0.173 µM (active). Also, the GI50 was < 0.0149 µM (active) in the experiment on SK-MEL-28; 0.0426 µM (active) with SN12C; 0.182 µM (active) in the experiment on MDA-N; < 0.0241 µM (active) in the experiment on SF-295; < 0.017 µM (active) with RXF 393.
